Reference: patent US10695321B2, “Use of glycopyrrolate for treating tachycardia” (Heptares Therapeutics Limited, priority 2011, dated 2020)

Test system: subjects with COPD
Experiment: Phase IIa placebo-controlled crossover dose-ranging study, heart rate (vital signs) after single inhaled dose
Type: in vivo, human
Conditions: for Adjusted Mean for Average Change in Heart Rate from Test day Baseline: ANCOVA
Method: The study was a Phase IIa, multi-centre, randomised, double-blind, placebo-controlled, crossover, dose-ranging study using four dose levels of glycopyrronium bromide in subjects with COPD. A total of 40 subjects were required to complete the study.
Subjects were randomised to receive a single inhaled dose of 20, 125, 250 and 400 μg of glycopyrronium bromide in ascending order, with a placebo dose randomised into the sequence over 5 study visits. Subjects were randomised to receive treatment on Study Day 1 prior to dosing. All doses, including placebo, were administered using the Miat Monohaler.
The Treatment period then consisted of five study visits (separated by a 5-14-day wash-out period), during which subjects were dosed with a single inhaled dose of glycopyrronium bromide using a Miat Monohaler, in ascending order (20, 125, 250 or 400 μg). A placebo was randomly administered (using a Miat Monohaler) at one of the study visits; subsequent visits continued with the next highest dose of glycopyrronium bromide to that which was administered prior to the placebo.
All subjects were scheduled to be dosed between 08:00 and 10:00 am. For individual subjects, dosing was at the same time of day (±30 minutes). At each dosing visit, subjects received a single dose of glycopyrronium bromide or placebo administered via Miat Monohaler. Each different dose (20, 125, 250 or 400 μg) was contained in one capsule. An appropriate number of Miat Monohalers to conduct the study was also supplied to the site. A new Miat Monohaler was used to administer each dose at each visit.
copyrronium bromide was presented in size 3, white opaque, hard, gelatin capsules packaged in aluminium pouches. The capsules were presented in four dose strengths containing 20, 125, 250, or 400 μg glycopyrronium bromide. In addition to glycopyrronium bromide, excipient present in the capsule formulation consisted of the PowderHale^TM formulation of lactose and magnesium stearate.
All vital signs were measured on each study day, including heart rate (with the subject semi-supine for 5 minutes prior to measurement); blood pressure; respiratory rate and temperature were measured at each visit and before receiving study medication (pre-treatment), if applicable. Blood pressure and heart rate were also measured at 45, 90 minutes and 5, 10, 20 and 30 hours post-treatment on study days.
The statistical analyses were to be reported using summary tables and data listings. Statistical tests for the evaluation were to be performed at the 0.05 significance level using a two-sided test.
All analyses and tabulations were to be performed using SASS Version 6.12 on a PC platform. Continuous variables were to be summarised with sample size (n), mean, standard deviation (SD), minimum, median, and maximum. […] The mean was to have one extra decimal place and the standard deviation was to have two extra decimal places. Categorical variables were to be summarised with number and percentage of subjects.

[1] = 20 μg single inhaled dose, 45 mins post-dose
[2] = 20 μg single inhaled dose, 90 mins post-dose
[3] = 20 μg single inhaled dose, 5 hrs post-dose
[4] = 20 μg single inhaled dose, 10 hrs post-dose
[5] = 20 μg single inhaled dose, 20 hrs post-dose
[6] = 20 μg single inhaled dose, 30 hrs post-dose
[7] = 20 μg single inhaled dose, pre-dose to 45 mins post-dose
[8] = 20 μg single inhaled dose, pre-dose to 90 mins post-dose
[9] = 20 μg single inhaled dose, pre-dose to 5 hours post-dose
[10] = 20 μg single inhaled dose, pre-dose to 10 hours post-dose
[11] = 20 μg single inhaled dose, pre-dose to 20 hours post-dose
[12] = 125 μg single inhaled dose, 45 mins post-dose
[13] = 125 μg single inhaled dose, 90 mins post-dose
[14] = 125 μg single inhaled dose, 5 hrs post-dose
[15] = 125 μg single inhaled dose, 10 hrs post-dose
[16] = 125 μg single inhaled dose, 20 hrs post-dose
[17] = 125 μg single inhaled dose, 30 hrs post-dose
[18] = 125 μg single inhaled dose, pre-dose to 45 mins post-dose
[19] = 125 μg single inhaled dose, pre-dose to 90 mins post-dose
[20] = 125 μg single inhaled dose, pre-dose to 5 hours post-dose
[21] = 125 μg single inhaled dose, pre-dose to 10 hours post-dose
[22] = 125 μg single inhaled dose, pre-dose to 20 hours post-dose
[23] = 125 μg single inhaled dose, pre-dose to 30 hours post-dose

## C[N+]1(C)CCC(OC(=O)C(O)(c2ccccc2)C2CCCC2)C1 (stereo not drawn) [glycopyrronium bromide]
[1]
  Heart Rate Mean: 70.3 bpm
  Heart Rate Median: 68.0 bpm
[2]
  Heart Rate Mean: 72.5 bpm
  Heart Rate Median: 71.0 bpm
[3]
  Heart Rate Mean: 72.8 bpm
  Heart Rate Median: 74.0 bpm
[4]
  Heart Rate Mean: 69.1 bpm
  Heart Rate Median: 68.0 bpm
[5]
  Heart Rate Mean: 68.8 bpm
  Heart Rate Median: 69.5 bpm
[6]
  Heart Rate Mean: 69.8 bpm
  Heart Rate Median: 70.0 bpm
[7]
  Heart Rate Change from Test day Baseline, Mean: −2.5 bpm
  Heart Rate Change from Test day Baseline, Median: −2.0 bpm
[8]
  Heart Rate Change from Test day Baseline, Mean: −0.2 bpm
  Heart Rate Change from Test day Baseline, Median: 0.0 bpm
[9]
  Heart Rate Change from Test day Baseline, Mean: −0.0 bpm
  Heart Rate Change from Test day Baseline, Median: 1.0 bpm
[10]
  Heart Rate Change from Test day Baseline, Mean: −3.4 bpm
  Heart Rate Change from Test day Baseline, Median: −1.0 bpm
[11]
  Heart Rate Change from Test day Baseline, Mean: −3.6 bpm
  Heart Rate Change from Test day Baseline, Median: −3.0 bpm
20 μg single inhaled dose, pre-dose to 30 hours post-dose
  Heart Rate Change from Test day Baseline, Mean: −2.7 bpm
20 μg, to 45 mins post-dose
  Adjusted Mean for Average Change in Heart Rate from Test day Baseline: −2.323 bpm
20 μg, to 45 mins post-dose, p-value 0.997
  Dose v Placebo Difference, adjusted mean change in Heart Rate from Test day Baseline: 0.005 bpm
20 μg, to 90 mins post-dose
  Adjusted Mean for Average Change in Heart Rate from Test day Baseline: 0.033 bpm
20 μg, to 90 mins post-dose, p-value 0.489
  Dose v Placebo Difference, adjusted mean change in Heart Rate from Test day Baseline: −1.239 bpm
20 μg, to 5 hours post-dose
  Adjusted Mean for Average Change in Heart Rate from Test day Baseline: 1.933 bpm
20 μg, to 5 hours post-dose, p-value 0.945
  Dose v Placebo Difference, adjusted mean change in Heart Rate from Test day Baseline: −0.114 bpm
20 μg, to 10 hours post-dose
  Adjusted Mean for Average Change in Heart Rate from Test day Baseline: −0.126 bpm
20 μg, to 10 hours post-dose, p-value 0.349
  Dose v Placebo Difference, adjusted mean change in Heart Rate from Test day Baseline: 1.698 bpm
20 μg, to 20 hours post-dose
  Adjusted Mean for Average Change in Heart Rate from Test day Baseline: −4.339 bpm
20 μg, to 20 hours post-dose, p-value 0.068
  Dose v Placebo Difference, adjusted mean change in Heart Rate from Test day Baseline: −2.872 bpm
20 μg, to 30 hours post-dose
  Adjusted Mean for Average Change in Heart Rate from Test day Baseline: −0.880 bpm
20 μg, to 30 hours post-dose, p-value 0.379
  Dose v Placebo Difference, adjusted mean change in Heart Rate from Test day Baseline: −1.499 bpm
[12]
  Heart Rate Mean: 65.5 bpm
  Heart Rate Median: 63.5 bpm
[13]
  Heart Rate Mean: 67.6 bpm
  Heart Rate Median: 69.0 bpm
[14]
  Heart Rate Mean: 70.6 bpm
  Heart Rate Median: 73.0 bpm
[15]
  Heart Rate Mean: 67.0 bpm
  Heart Rate Median: 67.0 bpm
[16]
  Heart Rate Mean: 66.4 bpm
  Heart Rate Median: 66.0 bpm
[17]
  Heart Rate Mean: 72.1 bpm
  Heart Rate Median: 72.0 bpm
[18]
  Heart Rate Change from Test day Baseline, Mean: −3.8 bpm
  Heart Rate Change from Test day Baseline, Median: −4.0 bpm
[19]
  Heart Rate Change from Test day Baseline, Mean: −1.8 bpm
  Heart Rate Change from Test day Baseline, Median: −2.0 bpm
[20]
  Heart Rate Change from Test day Baseline, Mean: 1.2 bpm
  Heart Rate Change from Test day Baseline, Median: 0.5 bpm
[21]
  Heart Rate Change from Test day Baseline, Mean: −2.1 bpm
  Heart Rate Change from Test day Baseline, Median: −3.0 bpm
[22]
  Heart Rate Change from Test day Baseline, Mean: −2.5 bpm
  Heart Rate Change from Test day Baseline, Median: −1.5 bpm
[23]
  Heart Rate Change from Test day Baseline, Mean: 2.8 bpm
  Heart Rate Change from Test day Baseline, Median: 1.0 bpm
125 μg, to 45 mins post-dose
  Adjusted Mean for Average Change in Heart Rate from Test day Baseline: −2.854 bpm
125 μg, to 45 mins post-dose, p-value 0.712
  Dose v Placebo Difference, adjusted mean change in Heart Rate from Test day Baseline: −0.526 bpm
125 μg, to 90 mins post-dose
  Adjusted Mean for Average Change in Heart Rate from Test day Baseline: −0.650 bpm
125 μg, to 90 mins post-dose, p-value 0.240
  Dose v Placebo Difference, adjusted mean change in Heart Rate from Test day Baseline: −1.921 bpm
125 μg, to 5 hours post-dose
  Adjusted Mean for Average Change in Heart Rate from Test day Baseline: 2.382 bpm
125 μg, to 5 hours post-dose, p-value 0.826
  Dose v Placebo Difference, adjusted mean change in Heart Rate from Test day Baseline: 0.335 bpm
125 μg, to 10 hours post-dose
  Adjusted Mean for Average Change in Heart Rate from Test day Baseline: −0.186 bpm
125 μg, to 10 hours post-dose, p-value 0.339
  Dose v Placebo Difference, adjusted mean change in Heart Rate from Test day Baseline: 1.638 bpm
125 μg, to 20 hours post-dose
  Adjusted Mean for Average Change in Heart Rate from Test day Baseline: −1.590 bpm
125 μg, to 20 hours post-dose, p-value 0.932
  Dose v Placebo Difference, adjusted mean change in Heart Rate from Test day Baseline: −0.123 bpm
125 μg, to 30 hours post-dose
  Adjusted Mean for Average Change in Heart Rate from Test day Baseline: 2.796 bpm
125 μg, to 30 hours post-dose, p-value 0.168
  Dose v Placebo Difference, adjusted mean change in Heart Rate from Test day Baseline: 2.177 bpm
250 μg single inhaled dose, 45 mins post-dose
  Heart Rate Mean: 65.1 bpm
